# Results reported in patent US8575201B2 (Boehringer Ingelheim International GmbH, priority 2010, dated 2013).
# Experiments:
# [1] = biological target: recombinant human FLAP protein (Homo sapiens (Human), UniProt P20292); assay: FLAP binding assay (Scintillation Proximity Assay, displacement of [125I]L-691,831); conditions: read-out: FLAP SPA IC50
# Procedure: Assessment of Biological Properties 1. Binding Assay: Compounds are assessed for the ability to bind to FLAP in a binding assay that measures compound-specific displacement of an iodinated (^125I) FLAP inhibitor via a Scintillation Proximity Assay format (adapted from S. Charleson et al., Mol. Pharmacol., 1992, 41, 873-879). […] The cells are lysed with a Dounce homogenizer and the material is centrifuged at 10,000×g for 10 minutes. The supernatant is then collected and centrifuged at 100,000×g for 60 minutes. To prepare membrane protein for an assay, an aliquot of the 100,000×g pellet is resuspended in 1 ml of buffer A, Dounce homogenized, and finally subjected to polytron mixing (30 seconds). […] Mol. Pharmacol., 41, 873-879, 1992) and finally 50 μl of the bead/protein mixture. (final concentrations: beads, 200 μg/well; protein, 5 μg/well; […] The plates are shaken for 2 h before reading on a Microbeta plate reader.
# [2] = test system: synthesis of LTB4 in human whole blood; assay: Human whole blood LTB4 production inhibition assay; assay type: cell-based; conditions: calcimycin stimulated, read-out: hWB LTB4 IC50
# Procedure: Compounds are additionally tested in a human whole blood assay to determine their ability to inhibit the synthesis of LTB4 in a cellular system. Compounds are combined with heparinized human whole blood and incubated for 15 minutes at 37° C. Calcimycin (20 μM final, prepared in phosphate-buffered saline, pH 7.4) is then added and the mixture is incubated for another 30 minutes at 37° C. The samples are centrifuged for 5 min at low speed (1500×g) and the plasma layer is removed. Plasma LTB4 concentrations are then measured using an antibody-based homogenous time-resolved fluorescence method (CisBio, Bedford, Mass.).
# Sequence of recombinant human FLAP protein (P20292 whole entry): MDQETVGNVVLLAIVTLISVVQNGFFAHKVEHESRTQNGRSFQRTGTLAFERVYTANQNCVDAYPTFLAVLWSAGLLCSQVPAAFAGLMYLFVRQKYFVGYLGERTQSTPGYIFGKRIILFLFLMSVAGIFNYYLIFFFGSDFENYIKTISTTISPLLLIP
Structure (SMILES),IC50 [1] [nM],IC50 [2] [nM]
"Nc1ncc(-c2ccc(C3(c4noc(-c5cccnc5N)n4)CCC3)cn2)cn1 [Example 105, 5-(5-{1-[5-(2-aminopyridin-3-yl)-1,2,4-oxadiazol-3-yl]cyclobutyl}pyridin-2-yl)pyrimidin-2-amine]",17,570
"Cc1nc(N)cnc1-c1ccc(C2(c3noc(-c4cnn(CC(C)(C)O)c4)n3)CCC2)cn1 [Example 172, 1-[4-(3-{1-[6-(5-Amino-3-methyl-pyrazin-2-yl)-pyridin-3-yl]-cyclobutyl}-[1,2,4]oxadiazol-5-yl)-pyrazol-1-yl]-2-methyl-propan-2-ol]",,51
"CC(C)(O)Cn1cc(-c2nc(C3(c4ccc(-c5cnc(N)nc5)nc4)CCC3)no2)cn1 [Example 54, 1-[4-(3-{1-[6-(2-aminopyrimidin-5-yl)pyridin-3-yl]cyclobutyl}-1,2,4-oxadiazol-5-yl)-1H-pyrazol-1-yl]-2-methylpropan-2-ol]",28,120
"Nc1ncc(-c2ccc(C3(c4noc(-c5ccc(OCCO)nc5)n4)CCC3)cn2)cn1 [Example 22, 2-{[5-(3-{1-[6-(2-aminopyrimidin-5-yl)pyridin-3-yl]cyclobutyl}-1,2,4-oxadiazol-5-yl)pyridin-2-yl]oxy}ethanol]",2.5,140
"Nc1ncc(-c2ccc(C3(c4noc(-c5ccc(=O)[nH]c5)n4)CCC3)cn2)cn1 [Example 108, 5-(3-{1-[6-(2-aminopyrimidin-5-yl)pyridin-3-yl]cyclobutyl}-1,2,4-oxadiazol-5-yl)pyridin-2(1H)-one]",48,720
"Nc1ncc(-c2ccc(C3(c4noc(-c5cncs5)n4)CCC3)cn2)cn1 [Example 123, 5-(5-{1-[5-(1,3-thiazol-5-yl)-1,2,4-oxadiazol-3-yl]cyclobutyl}pyridin-2-yl)pyrimidin-2-amine]",31,790
Nc1cnc(-c2ccc(C3(c4noc(-c5cnn(C6COC6)c5)n4)CCC3)cn2)cn1 [Example 145],8.3,29
"Cc1cc(-c2nc(C3(c4ccc(-c5cnc(N)nc5)cn4)CCC3)no2)[nH]n1 [Example 133, 5-(6-{1-[5-(3-methyl-1H-pyrazol-5-yl)-1,2,4-oxadiazol-3-yl]cyclobutyl}pyridin-3-yl)pyrimidin-2-amine]",43,340
"CCNc1cnc(-c2nc(C3(c4ccc(-c5cnc(N)nc5)nc4)CCC3)no2)cn1 [Example 57, 5-[5-(1-{5-[5-(ethylamino)pyrazin-2-yl]-1,2,4-oxadiazol-3-yl}cyclobutyl)pyridin-2-yl]pyrimidin-2-amine]",,34
"Cc1nc(N)cnc1-c1ccc(C2(c3noc(-c4cnn(C5COC5)c4)n3)CCC2)cn1 [Example 169, 6-Methyl-5-(5-{1-[5-(1-oxetan-3-yl-1H-pyrazol-4-yl)-[1,2,4]oxadiazol-3-yl]-cyclobutyl}-pyridin-2-yl)-pyrazin-2-ylamine]",,21
"Nc1ncc(-c2ccc(C3(c4noc(-c5ccc6[nH]ncc6c5)n4)CCC3)cn2)cn1 [Example 79, 5-(5-{1-[5-(1H-indazol-5-yl)-1,2,4-oxadiazol-3-yl]cyclobutyl}pyridin-2-yl)pyrimidin-2-amine]",,68
"COCCNc1cnc(-c2nc(C3(c4ccc(-c5cnc(N)nc5)nc4)CCC3)no2)cn1 [Example 56, 5-{5-[1-(5-{5-[(2-methoxyethyl)amino]pyrazin-2-yl}-1,2,4-oxadiazol-3-yl)cyclobutyl]pyridin-2-yl}pyrimidin-2-amine]",,24
"CC(C)(C)NC(=O)Cn1cc(-c2nc(C3(c4ccc(-c5cnc(N)nc5)nc4)CCC3)no2)cn1 [Example 144, 2-[4-(3-{1-[6-(2-aminopyrimidin-5-yl)pyridin-3-yl]cyclobutyl}-1,2,4-oxadiazol-5-yl)-1H-pyrazol-1-yl]-N-tert-butylacetamide]",,190
"CCNC(=O)Cn1cc(-c2nc(C3(c4ccc(-c5cnc(N)nc5)nc4)CCC3)no2)cn1 [Example 158, 2-[4-(3-{1-[6-(2-amino-pyrimidin-5-yl)-pyridin-3-yl]-cyclobutyl}-[1,2,4]oxadiazol-5-yl)-pyrazol-1-yl]-N-ethyl-acetamide]",,550
"CNc1cnc(-c2ccc(C3(c4noc(-c5cnn(CC#N)c5)n4)CCC3)cn2)cn1 [Example 173, [4-(3-{1-[6-(5-Methylamino-pyrazin-2-yl)-pyridin-3-yl]-cyclobutyl}-[1,2,4]oxadiazol-5-yl)-pyrazol-1-yl]-acetonitrile]",,18

# Other lines, results leading:
IC50 [1] [nM],IC50 [2] [nM],Structure (SMILES)
13,270,"Cn1cc(-c2nc(C3(c4ccc(-c5cnc(N)nc5)nc4)CCC3)no2)cn1 [Example 102, 5-(5-{1-[5-(1-methyl-1H-pyrazol-4-yl)-1,2,4-oxadiazol-3-yl]cyclobutyl}pyridin-2-yl)pyrimidin-2-amine]"
22,250,"CNC(=O)Cn1cc(-c2nc(C3(c4ccc(-c5cnc(N)nc5)nc4)CCC3)no2)cn1 [Example 58, 2-[4-(3-{1-[6-(2-aminopyrimidin-5-yl)pyridin-3-yl]cyclobutyl}-1,2,4-oxadiazol-5-yl)-1H-pyrazol-1-yl]-N-methylacetamide]"
7,140,"Nc1ncc(-c2ccc(C3(c4noc(-c5cn[nH]c5)n4)CCC3)cn2)cn1 [Example 90, 5-(5-{1-[5-(1H-pyrazol-4-yl)-1,2,4-oxadiazol-3-yl]cyclobutyl}pyridin-2-yl)pyrimidin-2-amine]"
19,580,"Nc1ncc(-c2ccc(C3(c4noc(-c5c[nH]cn5)n4)CCC3)cn2)cn1 [Example 75, 5-(5-{1-[5-(1H-imidazol-4-yl)-1,2,4-oxadiazol-3-yl]cyclobutyl}pyridin-2-yl)pyrimidin-2-amine]"
19,> 5000,"Cc1ccc(-c2nc(C3(c4ccc(-c5cnc(N)nc5)nc4)CCC3)no2)c(O)n1 [Example 97, 3-(3-{1-[6-(2-aminopyrimidin-5-yl)pyridin-3-yl]cyclobutyl}-1,2,4-oxadiazol-5-yl)-6-methylpyridin-2-ol]"
8.1,650,"Cc1nc(C)c(-c2nc(C3(c4ccc(-c5cnc(N)nc5)nc4)CCC3)no2)s1 [Example 94, 5-(5-{1-[5-(2,4-dimethyl-1,3-thiazol-5-yl)-1,2,4-oxadiazol-3-yl]cyclobutyl}pyridin-2-yl)pyrimidin-2-amine]"
52,300,"Cn1cnc(-c2nc(C3(c4ccc(-c5cnc(N)nc5)nc4)CCC3)no2)c1 [Example 131, 5-(5-{1-[5-(1-methyl-1H-imidazol-4-yl)-1,2,4-oxadiazol-3-yl]cyclobutyl}pyridin-2-yl)pyrimidin-2-amine]"
140,680,"N#Cc1cc(-c2ccc(C3(c4noc(-c5cnn(C6COC6)c5)n4)CCC3)cn2)cnc1N [Example 167, 6′-Amino-5-{1-[5-(1-oxetan-3-yl-1H-pyrazol-4-yl)-[1,2,4]oxadiazol-3-yl]-cyclobutyl}-[2,3′]bipyridinyl-5′-carbonitrile]"
1.8,160,"Nc1ncc(-c2ccc(C3(c4noc(-c5ccc(N6CCNC(=O)C6)nc5)n4)CCC3)cn2)cn1 [Example 125, 4-[5-(3-{1-[6-(2-aminopyrimidin-5-yl)pyridin-3-yl]cyclobutyl}-1,2,4-oxadiazol-5-yl)pyridin-2-yl]piperazin-2-one]"
7.9,150,"Nc1ncc(-c2ccc(C3(c4noc(-c5cnc(N6CCNCC6)cn5)n4)CCC3)cn2)cn1 [Example 60, 5-[5-(1-{5-[5-(piperazin-1-yl)pyrazin-2-yl]-1,2,4-oxadiazol-3-yl}cyclobutyl)pyridin-2-yl]pyrimidin-2-amine]"
1.2,170,"Nc1ncc(-c2ccc(C3(c4noc(-c5ccc(N6CC[C@@H](O)C6)nc5)n4)CCC3)cn2)cn1 [Example 43, (3R)-1-[5-(3-{1-[6-(2-aminopyrimidin-5-yl)pyridin-3-yl]cyclobutyl}-1,2,4-oxadiazol-5-yl)pyridin-2-yl]pyrrolidin-3-ol]"
,41,"CN1CCN(c2cnc(-c3nc(C4(c5ccc(-c6cnc(N)nc6)nc5)CCC4)no3)cn2)CC1 [Example 61, 5-[5-(1-{5-[5-(4-methylpiperazin-1-yl)pyrazin-2-yl]-1,2,4-oxadiazol-3-yl}cyclobutyl)pyridin-2-yl]pyrimidin-2-amine]"
,86,"COC(=O)[C@@H]1CN(c2ccc(-c3nc(C4(c5ccc(-c6cnc(N)nc6)nc5)CCC4)no3)cn2)CCN1 [Example 39, methyl (2S)-[5-(3-{1-[6-(2-aminopyrimidin-5-yl)pyridin-3-yl]cyclobutyl}-1,2,4-oxadiazol-5-yl)pyridin-2-yl]piperazine-2-carboxylate]"
,210,"COCCn1cc(-c2nc(C3(c4ccc(-c5cnc(N)nc5)nc4)CCC3)no2)cn1 [Example 28, 5-[5-(1-{5-[1-(2-methoxyethyl)-1H-pyrazol-4-yl]-1,2,4-oxadiazol-3-yl}cyclobutyl)pyridin-2-yl]pyrimidin-2-amine]"
,51,"N#CCn1cc(-c2nc(C3(c4ccc(-c5cnc(N)cn5)nc4)CCC3)no2)cn1 [Example 170, [4-(3-{1-[6-(5-Amino-pyrazin-2-yl)-pyridin-3-yl]-cyclobutyl}-[1,2,4]oxadiazol-5-yl)-pyrazol-1-yl]-acetonitrile]"
